Earlier results, collected in patent US20190161549A1, “COMBINATION THERAPY WITH A MEK INHIBITOR, A PD-1 AXIS INHIBITOR, AND A VEGF INHIBITOR” (Genentech, Inc., priority 2016, published 2019).
Where two headings read alike, the source gives them in different places.

Tests used:
[1] = not given; remark: listed apart in the source
[2] = system: human tumor cell lines; settings: through inhibition of MEK1 and MEK2
[3] = system: human tumor xenograft models
[4] = system: cancer patients; settings: 14 CRC patients
[5] = dose range 0.05 mg/kg (approximately 3.5 mg for 70 kg adult) to 80 mg
[6] = with or without high-fat meal, versus cobimetinib alone fasted

dose proportionality of pharmacokinetics [5] | effect of proton pump inhibitor rabeprazole on pharmacokinetics [6] | Compound | Kaplan-Meier estimated overall 24-week progression-free survival (PFS) rate (Study PCD4989g, 95% CI: 12%, 53%) [%] | anti-tumor activity (across doses from 1 to 20 mg/kg) | exposure of fixed dose 800 mg q2w versus 1200 mg q3w ([1]; 800 mg every two weeks (equivalent to 10 mg/kg q2w)) | dose proportionality of pharmacokinetics ([1]; doses ≥1 mg/kg every three weeks (q3w)) | proliferation of a variety of human tumor cell lines [2] | ERK phosphorylation in xenograft tumor models [3] | response in colorectal cancer (CRC) patients [4]
 |  | atezolizumab: anti-PD-L1 antibody, CAS Registry Number: 1422185-06-5 | 33 | has been observed | equivalent exposure | linear |  |  | 
linear pharmacokinetics | minimal effect | O=C(c1ccc(F)c(F)c1Nc1ccc(I)cc1F)N1CC(O)([C@@H]2CCCCN2)C1 [cobimetinib, (S)[3,4-Difluoro-2-(2-fluoro-4-iodophenylamino)phenyl][3-hydroxy-3-(piperidin-2-yl]azetidin-1-yl) methanone] |  |  |  |  | inhibits proliferation | inhibits ERK phosphorylation | all patients experienced progressive disease
